# Target: T1, human GPR120 (Homo sapiens, UniProt Q5NUL3)
# T1 construct: expressed in transfected cells
# T1 sequence (Q5NUL3 1-361): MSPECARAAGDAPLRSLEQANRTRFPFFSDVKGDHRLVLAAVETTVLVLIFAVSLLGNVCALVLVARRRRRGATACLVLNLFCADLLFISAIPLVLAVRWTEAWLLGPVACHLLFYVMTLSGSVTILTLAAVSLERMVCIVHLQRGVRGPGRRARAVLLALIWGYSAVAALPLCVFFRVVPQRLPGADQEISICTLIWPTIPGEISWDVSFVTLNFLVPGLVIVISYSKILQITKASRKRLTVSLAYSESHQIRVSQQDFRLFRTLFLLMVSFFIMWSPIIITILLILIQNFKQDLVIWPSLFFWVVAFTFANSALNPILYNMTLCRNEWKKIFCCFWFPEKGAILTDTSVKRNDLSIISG
# Assay: Human GPR120 IP1 Assay (inositol phosphate turnover, CisBio IP-One kit)
# Assay type: cell-based
# Conditions: IP1 accumulation in CHO-K1 cells stably expressing the short form of human GPR120; 60 min compound incubation; 4-parameter fit; read-out: hGPR120 EC50
# From the text: Human GPR120 IP1 Assay Principle
# The binding of small molecule agonists to the G-protein-coupled receptor GPR120 activates phospholipase C, and leads to the generation of inositol 1,4,5-trisphosphate (InsP3 or IP3). IP3 is subsequently de-phosphorylated to IP1, which accumulates in cells and is stable in the presence of lithium chloride.
# In the present method, agonist-induced activation of the human GPR120 receptor was monitored by measuring the accumulation of IP1 in CHO-K1 cells that were stably expressing the short form of human GPR120 (Accession #NM_001195755). Following agonist addition, GPR120 activation and subsequent accumulation of IP1 was measured using a homogeneous Time Resolved Fluorescence-based ELISA commercially available from CisBio (IP-one ELISA Kit). The IP-One ELISA was a competitive immunoassay which uses IP1 labeled with […] and a terbium cryptate-labeled anti-IP1 monoclonal antibody. […] The signal loss was then back calculated to IP1 concentration using an IP1 standard curve. Determination of IP1 concentration was a direct measure of GPR120 activation and was used to determine compound potency (EC50).
# Generation of GPR120-Expressing Cells:
# Human GPR120 stable cell-lines were generated in CHO cells. The expression plasmids were transfected using lipofectamine (Life Technologies) following manufacturer's instructions. Stable cell-lines were generated following drug selection and single cell cloning.
# Inositol Phosphate Turnover (IP1) Assay:
# The assay was performed in 384-well format. CHO cells stably expressing human GPR120 were plated at […] per well in growth medium (DMEM/F12, 10% fetal calf serum). Cell plates were then incubated 16 hours at 37 degrees in a 5% CO2 incubator. Measurement of Inositol Phosphate Turnover (IP1) was performed using the CisBio IP-One kit (Part number 62IPAPEB). After the 16 hour incubation, the growth media was removed by centrifugation using the BlueWasher (AusWasher GUI Ver. v1.0.1.8) Protocol #21-“Light Dry” and 10 ul of stimulation buffer (prepared as described in the kit) was added to each well. In a separate plate, compounds were diluted in DMSO (200-fold over the final concentration in the assay well) and 50 nl was acoustically transferred to the appropriate well in the assay cell plate. The plates were then incubated for 60 minutes at 37 degrees in a 5% CO2 incubator. 10 ul of detection buffer (also prepared as described in the IP-One kit) was added to each well and the plates were incubated at room temperature for 60 minutes in the dark. The plates were then read in a Perkin Elmer EnVision or equivalent reader able to measure FRET. Fluorescent ratio of emission at 665 and 620 nm was then converted to the IP1 concentration by back calculating from an IP1 standard curve prepared at the time of the assay. The data was normalized to % activity using a reference compound, and the EC50 values were determined using a standard 4-parameter fit.
row,SMILES,EC50 [nM]
1,CC(Cc1ccc2c(c1)CCN(c1cc(OC(F)(F)F)ccc1F)C2)C(=O)O (centres unmarked) [Example 52],510
2,"O=C(O)CCc1ccc2c(c1)CCN(c1cc(SC3CCC3)ncc1F)C2 [Example 26, 3-{2-[2-(cyclobutylsulfanyl)-5-fluoropyridin-4-yl]-1,2,3,4-tetrahydro-isoquinolin-6-yl}propanoic acid]",97
3,"O=C(O)CCc1ccc2c(c1F)CCN(c1nc(OC3CCC3)ccc1F)C2 [Example 63, 3-{2-[6-(cyclobutyloxy)-3-fluoro-pyridin-2-yl]-5-fluoro-1,2,3,4-tetra-hydro-isoquinolin-6-yl} propanoic acid]",14
4,"O=C(O)C1CC1c1ccc2c(c1)CCN(c1cc(OC(F)(F)F)ccc1F)C2 (centres unmarked) [Example 102, 2-{2-[2-fluoro-5-(trifluoromethoxy)phnyl]-1,2,3,4-tetrahydroisoquinolin-6-yl}cyclopropane-carboxylic acid]",118
5,"CO[C@H]1C[C@H](Oc2cc(F)c(F)c(N3CCc4c(ccc(CCC(=O)O)c4F)C3)c2)C1 [Example 66, 3-(2-{2,3-difluoro-5-[(trans-3-methoxycyclobutyl)oxy]phenyl}-5-fluoro-1,2,3,4-tetrahydroisoquino-lin-6-yl)-propanoic acid]",41
6,"COc1cc(F)c(N2CCc3cc(CCC(=O)O)ccc3C2)cc1Oc1ncc(C)s1 [Example 21, 3-(2-{2-fluoro-4-methoxy-5-[(5-methyl-1,3-thiazol-2-yl)oxy]phenyl}-1,2,3,4-tetrahydroiso-quinolin-6-yl)propanoic acid]",51
7,"O=C(O)CCc1ccc2c(c1F)CCN(c1cc(OC(F)(F)F)cc(Cl)c1F)C2 [Example 65, 3-{2-[3-chloro-2-fluoro-5-(trifluoromethoxy)phenyl]-5-fluoro-1,2,3,4-tetra-hydroisoquinolin-6-yl} propanoic acid]",37
8,"COc1cc(C#N)c(N2CCc3cc(CCC(=O)O)ccc3C2)cc1OC1CCC1 [Example 42, 3-{2-[2-cyano-5-(cyclobutyloxy)-4-methoxyphenyl]-1,2,3,4-tetra-hydroisoquinolin-6-yl}propanoic acid]",798
9,"Cc1cnc(Oc2cc(Cl)c(F)c(N3CCc4c(ccc(CCC(=O)O)c4F)C3)c2)s1 [Example 62, 3-(2-{3-chloro-2-fluoro-5-[(5-methyl-1,3-thiazol-2-yl)oxy]phenyl}-5-fluoro-1,2,3,4-tetrahydroisoquinolin-6-yl)propanoic acid]",3

# Further compounds by falling EC50, results first:
row,EC50 [nM],SMILES
1,6610,"O=C(O)C1CC1c1ccc2c(c1)CCN(c1cc(OC(F)(F)F)cc(Cl)c1F)C2 (centres unmarked) [Example 105, 2-{2-[3-chloro-2-fluoro-5-(trifluoro-methoxy)phenyl]-1,2,3,4-tetra-hydroisoquinolin-6-yl}cyclo-propane-carboxylic acid]"
2,377,"CC1c2ccc(CCC(=O)O)cc2CCN1c1cc(OC2CCC2)cc(F)c1Cl (centres unmarked) [Example 37, 3-{2-[2-chloro-5-(cyclobutyloxy)-3-fluorophenyl]-1-methyl-1,2,3,4-tetrahydroisoquinolin-6-yl}-propanoic acid]"
3,59,"O=C(O)[C@H]1C[C@@H]1c1ccc2c(c1)CCN(c1cc(OC3CCC3)cc(Cl)c1F)C2 [Example 91, (1S,2S)-2-{2-[3-chloro-5-(cyclobutyloxy)-2-fluorophenyl]-1,2,3,4-tetrahydroisoquinolin-6-yl} cyclopropane carboxylic acid]"
4,42,"C[C@H]1C[C@H](Oc2cc(F)c(F)c(N3CCc4c(ccc([C@@H]5C[C@H]5C(=O)O)c4F)C3)c2)C1 [Example 112, (1R,2R)-2-(2-{2,3-difluoro-5-[(trans-3-methylcyclobutyl)oxy]phenyl}-5-fluoro-1,2,3,4-tetrahydroisoquinolin-6-yl) cyclopropanecarboxylic acid]"
5,29,"CO[C@H]1C[C@H](Oc2cc(F)c(F)c(N3CCc4cc(CCC(=O)O)ccc4C3)c2)C1 [Example 20, 3-(2-{2,3-difluoro-5-[(trans-3-methoxycyclobutyl)oxy]phenyl}-1,2,3,4-tetrahydroisoquinolin-6-yl)propanoic acid]"
